Earlier results on one compound are cited in US7964610B2, “Buprenorphine derivatives and uses thereof” (Reckitt Benckiser Healthcare (UK) Limited, priority 2006, dated 2011).

As for `CO[C@]12CCC3(C[C@@H]1[C@](C)(O)C(C)(C)C)[C@H]1Cc4ccc(O)c5c4[C@@]3(CCN1CC1CC1)[C@H]2O5` [buprenorphine], the “bioavailability when taken orally” value (oral (swallowed)) is reported as roughly 5%. For the same compound, the “bioavailability when absorbed sublingually” value (sublingual) was “approximately fifty”.
